Test results as given in patent publication US11583507B2, “Direct AMPK activator compounds” (SOCIETE DES PRODUITS NESTLE S.A., priority 2018, dated 2023).

What was measured:
AMPKα2β1γ1 (211) = biological target: T1, AMPKα2β1γ1 (211) (Homo sapiens, UniProt P54619+P54646+Q9Y478); assay: AMPK in vitro activity assay (HTRF-KinEASE), phosphorylated bacterially-expressed complex; type: biochemical; details: fold activation vs complex without compound; 30 mins incubation
T1 construct: His; made in house; host or cells: bacteria
Procedure: (§1) Lusianthridin (CAS 87530-30-1) was isolated from Thunia alba fruit. It was sourced from Analyticon (NP-012362). The plant was purchased through Analyticon's biomaterial supplier in 2003. The country of origin is Nepal. The AMPK heterotrimers were expressed in bacteria and purified through the His-α subunit by nickel purification. AMPK complexes were purified through gel filtration and phosphorylated by incubation with CaMKKβ, and further purified with a final gel filtration purification step. Phosphorylated purified AMPK was incubated with varying concentrations of ligand for 30 mins using substrate and reagents from the HTRF-KinEASE Cisbio assay kit (STK S1 Kit). Phosphorylation of the substrate was measured by incubating with donor and acceptor antibodies for 2 h at room temperature as per the manufacturer's protocol (and Coulerie et al., (2016) PMID: 27792327) and phosphorylated peptide detected by performing HTRF. The 665 nm/620 nm ratio was determined and the results are plotted as fold activation compared to the respective AMPK complex without any compound.

AMPKα1β1γ1 (111) = biological target: T2, AMPKα1β1γ1 (111) (Homo sapiens, UniProt P54619+Q13131+Q9Y478); assay: AMPK in vitro activity assay (HTRF-KinEASE), α1-containing complex; type: biochemical; details: fold activation vs complex without compound
T2 construct: His; made in house; host or cells: bacteria
Procedure: as §1

[1] = biological target: T3, AMPK α2β1γ1 R298G (211 R298G) mutant (Homo sapiens, UniProt P54619+P54646+Q9Y478, R299G); assay: AMPK in vitro activity assay (HTRF-KinEASE), γ1 R298G mutant; type: biochemical; details: mutation in the γ1 AMP binding pocket
T3 construct: His; made in house; host or cells: bacteria
Procedure: as §1

[2] = tested on: AMPK α2β1γ1 ΔCBM mutant (211 ΔCBM); assay: AMPK in vitro activity assay (HTRF-KinEASE), ΔCBM mutant; type: biochemical; details: carbohydrate-binding module deleted
Procedure: as §1

[3] = biological target: T4, AMPK α2β1γ1 S108A mutant (211 S108A) (Homo sapiens, UniProt P54619+P54646+Q9Y478, S108A); assay: AMPK in vitro activity assay (HTRF-KinEASE), β1 S108A mutant; type: biochemical
T4 construct: His; made in house; host or cells: bacteria
Procedure: as §1

[4] = tested on: AMPK substrate, acetyl-CoA carboxylase (ACC); assay: pACC HTRF assay in U2OS Flp-In T-REx cells; type: cell-based; details: 1 h, varying concentrations, dose-dependent
Procedure: (§2) U2OS Flp-In T-REx cells were seeded at 100 K in a 96-well plate and left overnight at 37 C in DMEM GlutaMAX (Thermo Fisher Scientific) supplemented with 10% (vol/vol) FBS and 100 U/ml penicillin G, and 100 μg/ml streptomycin. Cells were treated for 1 h with varying concentrations of Lusianthridin in media lacking FBS and then cells were lysed in 50 μl of Cisbio lysis buffer #1 supplemented with blocking solution as per the manufacturer's protocol (Cisbio). Cells were lysed for 30 mins at room temperature before 16 μl of lysate was incubated with 4 μl of the HTRF antibodies (1:40 dilution of the acceptor and donor (p)ACC antibodies, as per the manufacturers protocol). Lysates were incubated overnight with the antibodies before 665 nm/620 nm ratio was determined using a MolecularDevices i3 plate reader (with a HTRF cartridge add-on). For western blot analysis, SDS-sample buffer was added to the remainder of the lysate, denatured at 95 C and then subjected to western blot analysis with phospho-specific and total ACC antibodies (Cell Signalling). Bands were visualized by incubating with Li-Cor secondary antibody and scanned on a Li-Cor Odyssey machine.

[5] = tested on: AMPK substrate, acetyl-CoA carboxylase (ACC); assay: Western blot of pACC / total ACC in U2OS Flp-In T-REx lysates; type: cell-based; details: varying concentrations
Procedure: as §2

[6] = tested on: differentiated C2C12 cells; assay: Glucose uptake (3H-2-deoxyglucose) into differentiated C2C12 cells; type: cell-based; details: Lusianthridin 100 μM for 4 h at 37 C
Procedure: C2C12 cells were maintained in DMEM GlutaMAX supplemented with 10% (vol/vol) FBS and 100 U/ml penicillin G, and 100 μg/ml streptomycin. C2C12 myoblasts were differentiated into myotubes by 7 days of culture in DMEM GlutaMAX supplemented with 2% (vol/vol) horse serum and antibiotics. Cells were transferred to serum-free media for 24 hours, before equilibrating with bicarbonate-free medium prior to treatment. Cells were treated with Control (DMSO 1% final concentration) or 100 μM Lusianthridin in the presence of ^3H-2-deoxyglucose (in Krebs-Hepes buffer containing sodium pyruvate). Cells were lysed and the quantity of ^3H determined in these samples using a scintillation counter.
Activation of AMPK in muscle cells has been previously shown to increase glucose uptake. […] Differentiated C2C12 cells were treated with either control or 100 μM Lusianthridin for 4 h at 37 C. Glucose uptake was determined by monitoring the uptake of ^3H-2-deoxyglucose into cells. […] This is consistent with the important role of AMPK in mediating glucose uptake in muscle.

C2C12 AMPKα1α2−/− cells = assay: Glucose uptake (3H-2-deoxyglucose) in differentiated C2C12 AMPKα1α2−/− cells; type: cell-based, murine; details: 30 or 100 μM Lusianthridin, 300 nM Insulin, 1 h at 37° C
From the text: C2C12 AMPK α1α2 double knockout cell lines were generated by transient transfection of wild type cells with plasmids containing Cas9 enzyme linked to green fluorescent protein expression and Cas9 guide RNA sequences targeting the murine AMPK α1 subunit (sc-430618, SantaCruz) and the murine AMPK α2 subunit (sc-430803, SantaCruz). Cells positive for green fluorescent protein expression were single cell sorted by flow cytometry into 96-well plates containing growth medium and analysed for loss of AMPK signaling following expansion of the clones.
Differentiated C2C12 AMPKα1α2+/+ and AMPKα1α2−/− cells were treated with either vehicle (0.2% DMSO), 30 μM or 100 μM Lusianthridin for 1 h at 37° C. […] Finally, differentiated C2C12 AMPKα1α2+/+ and AMPKα1α2−/− cells were treated with either vehicle (0.2% DMSO) or 100 μM Lusianthridin in the presence or absence of 15 nM Wortmanin for 1 h at 37° C. For the Wortmanin experiments, differentiated C2C12 cells were pre-incubated with DMSO or Wortmanin for 1 h prior to treatment.
Glucose uptake was determined by monitoring the uptake of 3H-2-deoxyglucose into cells. C2C12 AMPKα1α2+/+ and AMPKα1α2−/− cells were maintained in DMEM GlutaMAX supplemented with 20% (vol/vol) FBS and 100 U/ml penicillin G, and 100 μg/ml streptomycin. […] Cells were lysed and the quantity of ^3H determined in these samples using a scintillation counter.

T4 sequence (P54646 whole entry): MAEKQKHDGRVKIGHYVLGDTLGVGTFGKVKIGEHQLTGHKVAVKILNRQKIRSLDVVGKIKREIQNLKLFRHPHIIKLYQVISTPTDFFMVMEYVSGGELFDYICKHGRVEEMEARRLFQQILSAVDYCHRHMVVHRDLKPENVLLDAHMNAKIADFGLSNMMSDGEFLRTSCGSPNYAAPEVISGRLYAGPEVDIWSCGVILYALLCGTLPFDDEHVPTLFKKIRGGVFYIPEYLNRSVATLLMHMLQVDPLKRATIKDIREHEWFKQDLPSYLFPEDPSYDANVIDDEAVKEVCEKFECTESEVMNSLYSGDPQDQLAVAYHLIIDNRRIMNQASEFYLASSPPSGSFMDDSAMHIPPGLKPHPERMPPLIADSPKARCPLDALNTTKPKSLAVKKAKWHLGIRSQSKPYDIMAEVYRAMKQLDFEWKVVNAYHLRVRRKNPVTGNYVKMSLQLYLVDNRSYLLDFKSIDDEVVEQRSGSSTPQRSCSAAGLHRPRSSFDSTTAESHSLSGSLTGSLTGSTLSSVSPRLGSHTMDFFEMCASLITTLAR
T4 sequence (Q9Y478 whole entry S108A): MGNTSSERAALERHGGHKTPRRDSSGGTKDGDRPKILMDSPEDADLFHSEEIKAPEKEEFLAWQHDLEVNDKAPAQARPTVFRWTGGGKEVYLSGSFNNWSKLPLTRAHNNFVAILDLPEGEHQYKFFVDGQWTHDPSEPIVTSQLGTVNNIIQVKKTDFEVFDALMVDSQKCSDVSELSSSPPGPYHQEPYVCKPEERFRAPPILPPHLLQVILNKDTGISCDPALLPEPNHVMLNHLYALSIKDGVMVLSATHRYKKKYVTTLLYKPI
T4 sequence (P54619 whole entry): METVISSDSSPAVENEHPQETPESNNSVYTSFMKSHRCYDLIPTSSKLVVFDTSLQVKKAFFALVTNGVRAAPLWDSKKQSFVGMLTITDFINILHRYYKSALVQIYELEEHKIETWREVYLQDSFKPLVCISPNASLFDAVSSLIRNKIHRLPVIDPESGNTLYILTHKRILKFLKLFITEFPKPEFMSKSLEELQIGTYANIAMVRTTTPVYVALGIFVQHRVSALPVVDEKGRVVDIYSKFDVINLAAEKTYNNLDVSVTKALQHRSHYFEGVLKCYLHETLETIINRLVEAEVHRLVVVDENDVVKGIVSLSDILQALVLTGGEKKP
T1 sequence (P54646 whole entry): as the sequence (P54646 whole entry) above
T1 sequence (Q9Y478 whole entry): as the sequence (Q9Y478 whole entry S108A) above, with A108S counted along it
T1 sequence (P54619 whole entry): as the sequence (P54619 whole entry) above
T3 sequence (P54646 whole entry): as the sequence (P54646 whole entry) above
T3 sequence (Q9Y478 whole entry): as the sequence (Q9Y478 whole entry S108A) above, with A108S counted along it
T3 sequence (P54619 whole entry R299G): as the sequence (P54619 whole entry) above, with R299G counted along it
T2 sequence (Q13131 whole entry): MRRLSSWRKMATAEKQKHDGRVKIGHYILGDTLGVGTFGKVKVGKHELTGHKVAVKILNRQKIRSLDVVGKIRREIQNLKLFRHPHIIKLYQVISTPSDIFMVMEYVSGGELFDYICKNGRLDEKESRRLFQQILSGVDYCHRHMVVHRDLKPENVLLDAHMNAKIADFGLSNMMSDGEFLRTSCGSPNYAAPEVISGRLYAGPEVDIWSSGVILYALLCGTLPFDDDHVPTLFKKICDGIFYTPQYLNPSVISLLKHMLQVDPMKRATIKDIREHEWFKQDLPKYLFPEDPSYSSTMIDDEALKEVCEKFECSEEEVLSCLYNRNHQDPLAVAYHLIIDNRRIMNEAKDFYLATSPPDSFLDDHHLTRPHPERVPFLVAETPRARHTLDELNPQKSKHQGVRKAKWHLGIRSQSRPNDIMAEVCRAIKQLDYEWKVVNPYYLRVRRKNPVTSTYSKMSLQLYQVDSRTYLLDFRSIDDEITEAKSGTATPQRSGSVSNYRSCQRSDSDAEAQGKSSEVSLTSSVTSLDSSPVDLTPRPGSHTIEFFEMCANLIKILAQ
T2 sequence (Q9Y478 whole entry): as the sequence (Q9Y478 whole entry S108A) above, with A108S counted along it
T2 sequence (P54619 whole entry): as the sequence (P54619 whole entry) above

- activation of bacterially-expressed AMPKα2β1γ1 complexes (AMPKα2β1γ1 (211)): Activates
- activation of bacterially-expressed AMPKα1β1γ1 complexes (AMPKα1β1γ1 (111)): Activates
- activation of AMPK α2β1γ1 γ1 R298G mutant complexes [1]: still activates
- activation of AMPK complexes with the β1 S108A mutation [3]: does not activate
Structure (SMILES): COc1cc(O)c2c(c1)CCc1cc(O)ccc1-2 [Lusianthridin, 7-Methoxy-9,10-dihydrophenanthrene-2,5-diol]
- activation of α2β1γ1 ΔCBM mutant [2]: does not activate
- phosphorylation of the AMPK substrate ACC (pACC HTRF) [4]: increases
- phosphorylation of ACC by western blot (AMPK activation in cells) [5]: activates AMPK in cells
- fold increase in glucose uptake relative to control [6]: ~2 fold
- glucose uptake (fold change relative to control) (C2C12 AMPKα1α2−/− cells): abolished
